# US4228304A, “Novel cyclohexanecarboxylic acid and its derivatives” (Hisamitsu Pharmaceutical Co. Inc., priority 1977, dated 1980)
# Assays:
# dog = assay: Acute toxicity (dog); format: in vivo; conditions: female dog, p.o.; 30240 min
# Acute toxicity (dog) = format: in vivo; conditions: in vivo, po; male dog
# Acute toxicity (mouse) = conditions: in vivo
# Experimental: (§1) Each test compound suspended in 0.5% tragacanth gum-saline was administered orally, subcutaneously or intraperitoneally to animals ddY strain mouse and Wistar strain rats. The 50% lethal dose and the 95% confidence limit were calculated by Litchfield-Wilcoxon's method from the death of animals in 3 weeks following administration.
# [1] = test system: rat adjuvant polyarthritis; assay: Effect on rat adjuvant polyarthritis; format: in vivo, rat (Sprague Dawley strain); conditions: oral daily: Compound No. 1 200 mg/kg, Ibuprofen 50 mg/kg, Prednisolone 0.5 mg/kg
# Experimental: (5) Effect on rat adjuvant polyarthritis
# A group of eight to ten male Sprague Dawley strain rats (body weight 240-280 g) were used. 0.1 ml of Complete Freuind's adjuvant (CFA, Mycobacterium butyricum, 100 mg/10 cc) was injected intradermally to the right hind sole.
# [2] = test system: passive cutaneous anaphylaxis in rat; assay: Homologeous passive cutaneous anaphylaxis in rat; format: in vivo, rat (Wistar strain); conditions: 100 mg/kg, orally; exuded pigment vs control
# Experimental: (2) Homologeous passive cutaneous anaphylaxis in rat Each test compound suspended in 0.5% tragacanth gum-distilled water was administered orally to a group of five male Wistar strain rats (body weight 150-200 g). After one hour 0.1 ml of 5% anti-Dinitrophinol conpled Ascaris rat IgE serum-physiological sodium chloride solution was injected intradermally to dorsum of the rat. […] The animals were sacrificed by decapitation 30 minutes after the injection. Thereafter the skin of the animals were removed and the amount of the pigment exuded into the inflamed skin was determined. The percent inhibitions were calculated by the ratio of the amounts of exuded pigments to the control.
# [3] = test system: Picryl Chloride induced contact dermatitis; assay: Picryl Chloride induced contact dermatitis; format: in vivo, mouse (ddY strain); conditions: Mus musculus, po; 100 mg/kg, orally; ear swelling 24 hours after second challenge
# Experimental: (3) Picryl Chloride induced contact dermatitis
# At first 0.1 ml of 7% picryl chloride-ethanol solution was applied to skin of the depilated abdomens (area 2.5×15 mm) of ddY-strain male mice (body weight 20-22 g). After one week each 0.02 ml of 1% picryl chloride-olive oil solution was applied topically to the ears of the mouse. […] After three days 0.1 ml of 7% picryl chloride-ethanol solution was applied again to the depilated abdomens of the mice. After one week, each 0.02 ml of 1% picryl chloride-olive oil solution per ear were applied topically to the bilateral ears, and at same time, the test compounds were administered orally. Immediately before and 24 hours after the second challenge, the thickness of the ears was measured and the swelling was calculated. The percent inhibitions were calculated by the ratio of the each swelling to the control.
# [4] = test system: lung fragment of guinea pig; assay: Mediator (histamine) release on lung fragment of guinea pig; format: cell-based, guinea pig (Hartley strain); conditions: 10^-4 g/ml
# Experimental: (4) Mediator release on lung fragment of guinea pig.
# A group of Hartley strain male guinea pigs (body weight 250-300 g) were administered intraperitoneally anti-BPO-BGG IgE serum. The animals were sacrificed by decapitation, and those sensitized lungs were isolated for use. […] Following 10 minute incubation, the amount of the released histamine were determined by bioassay.
# Acute toxicity (rabbit) = conditions: in vivo, po; female rabbit
# Acute toxicity (rat) = conditions: in vivo
# Experimental: as §1
compound,measurement,setting,value
"CC(C)CCC[C@H]1CC[C@@](C)(C(=O)O)CC1 [Compound No. 1, cis-4-isohexyl-1-methylcyclohexanecarboxylic acid]",LD50,dog,> 5000 mg/kg
same,LD50 at 504 h,Acute toxicity (dog),> 5000 mg/kg
same,LD50 at 504 h,"Acute toxicity (mouse); ip, female mouse",998 mg/kg
same,LD50 at 504 h,"Acute toxicity (mouse); ip, male mouse",1110 mg/kg
same,LD50 at 504 h,"Acute toxicity (mouse); po, female mouse",6390 mg/kg
same,LD50 at 504 h,"Acute toxicity (mouse); po, male mouse",5950 mg/kg
same,LD50 at 504 h,"Acute toxicity (mouse); sc, female mouse",> 10000 mg/kg
same,LD50 at 504 h,"Acute toxicity (mouse); sc, male mouse",> 10000 mg/kg
same,Swelling percent of left hind paw (non-treatment of CFA),[1]; day 0,-1.3±1.8%
same,Swelling percent of right hind paw (treatment of CFA),[1]; day 0,118.1± 5.0%
same,Swelling percent of left hind paw (non-treatment of CFA),[1]; day 1,-3.0±1.2%
same,Swelling percent of right hind paw (treatment of CFA),[1]; day 1,100.0± 5.3%
same,Swelling percent of left hind paw (non-treatment of CFA),[1]; day 4,-0.8±2.0%
same,Swelling percent of right hind paw (treatment of CFA),[1]; day 4,255.4±13.8%
same,Swelling percent of left hind paw (non-treatment of CFA),[1]; day 7,4.5±3.3%
same,Swelling percent of right hind paw (treatment of CFA),[1]; day 7,216.3±12.8%
same,Swelling percent of left hind paw (non-treatment of CFA),[1]; day 10,11.8±2.4%
same,Swelling percent of right hind paw (treatment of CFA),[1]; day 10,173.8± 7.1%
same,Swelling percent of left hind paw (non-treatment of CFA),[1]; day 14,13.3±1.6%
same,Swelling percent of right hind paw (treatment of CFA),[1]; day 14,169.5± 8.0%
same,Swelling percent of left hind paw (non-treatment of CFA),[1]; day 17,13.2±1.7%
same,Swelling percent of right hind paw (treatment of CFA),[1]; day 17,166.0± 8.6%
same,Swelling percent of left hind paw (non-treatment of CFA),[1]; day 21,8.5±2.0%
same,Swelling percent of right hind paw (treatment of CFA),[1]; day 21,163.0±10.5%
same,Inhibition,[2],28%
same,inhibition in vivo at 100 mg/kg,[3],49%
same,inhibition (released histamine),[4],24.2%
same,LD50 at 504 h,Acute toxicity (rabbit),> 6000 mg/kg
same,LD50 at 504 h,"Acute toxicity (rat); ip, female rat",1690 mg/kg
same,LD50 at 504 h,"Acute toxicity (rat); ip, male rat",2070 mg/kg
same,LD50 at 504 h,"Acute toxicity (rat); po, female rat",> 10000 mg/kg
same,LD50 at 504 h,"Acute toxicity (rat); po, male rat",> 10000 mg/kg
same,LD50 at 504 h,"Acute toxicity (rat); sc, female rat",> 10000 mg/kg
same,LD50 at 504 h,"Acute toxicity (rat); sc, male rat",> 10000 mg/kg
